From patent publication US9376429B2, “Sodium channel blockers, preparation method thereof and use thereof” (Daewoong Pharmaceutical Co., Ltd., priority 2012, dated 2016)

Molecular target: T1, sodium ion channel (Nav1.7) (Homo sapiens, UniProt Q15858)
T1 construct: host or cells: HEK293
Assay: Blocking effect against sodium ion channel (Nav1.7), IonFlux16 auto patch clamp, hNav1.7 HEK293 cells
Type: cell-based
Settings: peak current after 50 seconds treatment, eight concentrations
Summary of the method: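 HEK293 cells stably expressing human Nav1.7 were recorded by IonFlux16 automated patch clamp in extracellular solution (pH 7.45, final DMSO ≤0.3%). Peak current was measured after 50 s exposure to each of eight compound concentrations and expressed as percent inhibition relative to pre-compound current.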

T1 sequence (Q15858 whole entry): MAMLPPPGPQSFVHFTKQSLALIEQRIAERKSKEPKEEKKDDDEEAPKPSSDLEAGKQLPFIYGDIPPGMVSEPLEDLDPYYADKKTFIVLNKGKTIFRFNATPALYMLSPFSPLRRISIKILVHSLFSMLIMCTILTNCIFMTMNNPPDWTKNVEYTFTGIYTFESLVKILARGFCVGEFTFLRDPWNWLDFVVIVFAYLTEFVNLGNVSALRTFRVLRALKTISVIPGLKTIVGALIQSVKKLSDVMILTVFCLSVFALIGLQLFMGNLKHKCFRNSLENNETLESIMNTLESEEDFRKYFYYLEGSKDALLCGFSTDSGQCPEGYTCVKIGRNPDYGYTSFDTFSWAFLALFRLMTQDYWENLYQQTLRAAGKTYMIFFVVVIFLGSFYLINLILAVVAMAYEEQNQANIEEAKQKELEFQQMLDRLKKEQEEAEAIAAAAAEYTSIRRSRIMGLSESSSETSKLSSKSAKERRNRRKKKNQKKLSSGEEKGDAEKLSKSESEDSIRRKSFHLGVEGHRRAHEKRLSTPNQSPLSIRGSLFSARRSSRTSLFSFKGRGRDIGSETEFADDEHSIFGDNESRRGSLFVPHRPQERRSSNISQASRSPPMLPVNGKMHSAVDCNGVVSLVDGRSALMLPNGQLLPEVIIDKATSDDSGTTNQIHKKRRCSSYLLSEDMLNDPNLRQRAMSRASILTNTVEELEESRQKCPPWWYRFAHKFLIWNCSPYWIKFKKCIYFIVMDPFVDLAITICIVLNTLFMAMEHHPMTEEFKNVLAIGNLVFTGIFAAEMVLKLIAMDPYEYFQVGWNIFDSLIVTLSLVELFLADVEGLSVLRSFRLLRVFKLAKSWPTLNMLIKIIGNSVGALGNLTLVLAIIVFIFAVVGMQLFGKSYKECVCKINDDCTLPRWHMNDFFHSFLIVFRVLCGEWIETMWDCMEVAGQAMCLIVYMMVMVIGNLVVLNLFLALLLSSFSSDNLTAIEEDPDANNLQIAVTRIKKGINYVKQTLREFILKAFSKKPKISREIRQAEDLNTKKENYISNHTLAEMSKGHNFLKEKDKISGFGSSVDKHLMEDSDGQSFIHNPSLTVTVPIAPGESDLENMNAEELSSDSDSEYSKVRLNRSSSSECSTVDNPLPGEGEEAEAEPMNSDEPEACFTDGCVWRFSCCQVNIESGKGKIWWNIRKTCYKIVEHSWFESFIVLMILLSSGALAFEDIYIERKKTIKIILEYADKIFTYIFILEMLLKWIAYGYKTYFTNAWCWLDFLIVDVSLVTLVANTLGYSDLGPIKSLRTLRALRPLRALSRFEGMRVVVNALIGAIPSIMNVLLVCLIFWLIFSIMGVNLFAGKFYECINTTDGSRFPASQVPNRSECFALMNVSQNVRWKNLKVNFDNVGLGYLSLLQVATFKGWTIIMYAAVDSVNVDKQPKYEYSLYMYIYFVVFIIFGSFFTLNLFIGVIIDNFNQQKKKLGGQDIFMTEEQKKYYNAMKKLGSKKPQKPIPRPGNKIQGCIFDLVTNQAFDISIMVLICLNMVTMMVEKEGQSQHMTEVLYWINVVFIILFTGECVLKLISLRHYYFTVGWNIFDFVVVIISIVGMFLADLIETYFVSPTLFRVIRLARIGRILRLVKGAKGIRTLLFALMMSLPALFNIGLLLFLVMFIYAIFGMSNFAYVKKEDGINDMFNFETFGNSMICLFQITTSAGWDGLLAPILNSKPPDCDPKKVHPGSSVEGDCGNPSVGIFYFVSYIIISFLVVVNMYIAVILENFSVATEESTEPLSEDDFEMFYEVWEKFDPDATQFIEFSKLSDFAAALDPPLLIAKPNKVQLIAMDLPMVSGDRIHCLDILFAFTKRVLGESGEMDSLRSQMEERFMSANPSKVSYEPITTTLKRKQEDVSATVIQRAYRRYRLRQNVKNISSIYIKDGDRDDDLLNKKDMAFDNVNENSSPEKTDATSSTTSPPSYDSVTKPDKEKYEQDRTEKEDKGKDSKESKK

SMILES	IC50 [nM]
O=S(=O)(Nc1cscn1)c1cc(Cl)c(Oc2cnc(-c3cccc(F)c3)cc2-c2ccnc(N3CCOCC3)c2)cc1F [Example 101, 5-chloro-2-fluoro-4-((6-(3-fluorophenyl)-2′-morpholino-[4,4′-bipyridin]-3-yl)oxy)-N-(thiazol-4-yl)benzenesulfonamide]	51 to 100
O=S(=O)(Nc1cscn1)c1cc(Cl)c(Oc2cnc(-c3cccc(F)c3)cc2-c2ccnc(N3CCCCC3)c2)cc1F [Example 102, 5-chloro-2-fluoro-4-((6-(3-fluorophenyl)-2′-(piperidin-1-yl)-[4,4′-bipyridin]-3-yl)oxy)-N-(thiazol-4-yl)benzenesulfonamide]	> 100
N#Cc1cc(S(=O)(=O)Nc2nccs2)ccc1Oc1ccc(-c2cccnc2F)nc1-c1ccoc1 [Example 103, 3-cyano-4-((2′-fluoro-6-(furan-3-yl)-[2,3′-bipyridin]-5-yl)oxy)-N-(thiazol-2-yl)benzenesulfonamide]	> 100
N#Cc1cc(S(=O)(=O)Nc2nccs2)ccc1Oc1ccc(-c2ccc(F)nc2)nc1-c1ccoc1 [Example 104, 3-cyano-4-((6′-fluoro-6-(furan-3-yl)-[2,3′-bipyridin]-5-yl)oxy)-N-(thiazol-2-yl)benzenesulfonamide]	51 to 100
N#Cc1cc(S(=O)(=O)Nc2nccs2)ccc1Oc1ccc(-c2cccnc2)nc1-c1ccoc1 [Example 105, 3-cyano-4-((6-(furan-3-yl)-[2,3′-bipyridin]-5-yl)oxy)-N-(thiazol-2-yl)benzenesulfonamide]	> 100
N#Cc1cc(S(=O)(=O)Nc2nccs2)ccc1Oc1ccc(-c2cncnc2)nc1-c1ccoc1 [Example 106, 3-cyano-4-((2-(furan-3-yl)-6-(pyrimidin-5-yl)pyridin-3-yl)oxy)-N-(thiazol-2-yl)benzenesulfonamide]	> 100
Cn1nccc1-c1nc(-c2ccnc(F)c2)ccc1Oc1ccc(S(=O)(=O)Nc2nccs2)cc1C#N [Example 107, 3-cyano-4-((2′-fluoro-6-(1-methyl-1H-pyrazol-5-yl)-[2,4′-bipyridin]-5-yl)oxy)-N-(thiazol-2-yl)benzenesulfonamide]	> 100
N#Cc1cc(S(=O)(=O)Nc2nccs2)ccc1Oc1ccc(-c2ccccc2F)nc1-c1ccoc1 [Example 108, 3-cyano-4-((6-(2-fluorophenyl)-2-(furan-3-yl)pyridin-3-yl)oxy)-N-(thiazol-2-yl)benzenesulfonamide]	51 to 100
N#Cc1cc(S(=O)(=O)Nc2nccs2)ccc1Oc1ccc(-c2ccc(F)cc2)nc1-c1ccoc1 [Example 109, 3-cyano-4-((6-(4-fluorophenyl)-2-(furan-3-yl)pyridin-3-yl)oxy)-N-(thiazol-2-yl)benzenesulfonamide]	< 50
N#Cc1cc(S(=O)(=O)Nc2nccs2)ccc1Oc1ccc(-c2cccc(F)c2)nc1-c1ccoc1 [Example 110, 3-cyano-4-((6-(3-fluorophenyl)-2-(furan-3-yl)pyridin-3-yl)oxy)-N-(thiazol-2-yl)benzenesulfonamide]	< 50
N#Cc1cc(S(=O)(=O)Nc2nccs2)ccc1Oc1ccc(-c2ccncc2)nc1-c1ccoc1 [Example 111, 3-cyano-4-((6-(furan-3-yl)-[2,4′-bipyridin]-5-yl)oxy)-N-(thiazol-2-yl)benzenesulfonamide]	> 100
N#Cc1cc(S(=O)(=O)Nc2nccs2)ccc1Oc1ccc(-c2ccnc(F)c2)nc1-c1ccoc1 [Example 112, 3-cyano-4-((2′-fluoro-6-(furan-3-yl)-[2,4′-bipyridin]-5-yl)oxy)-N-(thiazol-2-yl)benzenesulfonamide]	51 to 100
N#Cc1cc(S(=O)(=O)Nc2nccs2)ccc1Oc1ccc(-c2ccsc2)nc1-c1ccoc1 [Example 113, 3-cyano-4-((2-(furan-3-yl)-6-(thiophen-3-yl)pyridin-3-yl)oxy)-N-(thiazol-2-yl)benzenesulfonamide]	> 100
N#Cc1cc(S(=O)(=O)Nc2nccs2)ccc1Oc1ccc(-c2ccoc2)nc1-c1ccoc1 [Example 114, 3-cyano-4-((2,6-di(furan-3-yl)pyridin-3-yl)oxy)-N-(thiazol-2-yl)benzenesulfonamide]	> 100
Cn1nccc1-c1nc(-c2ccc(F)nc2)ccc1Oc1ccc(S(=O)(=O)Nc2nccs2)cc1C#N [Example 115, 3-cyano-4-((6′-fluoro-6-(1-methyl-1H-pyrazol-5-yl)-[2,3′-bipyridin]-5-yl)oxy)-N-(thiazol-2-yl)benzenesulfonamide]	> 100
Cn1nccc1-c1nc(-c2cccnc2F)ccc1Oc1ccc(S(=O)(=O)Nc2nccs2)cc1C#N [Example 116, 3-cyano-4-((2′-fluoro-6-(1-methyl-1H-pyrazol-5-yl)-[2,3′-bipyridin]-5-yl)oxy)-N-(thiazol-2-yl)benzenesulfonamide]	> 100
Cn1nccc1-c1nc(-c2cccc(F)c2)ccc1Oc1ccc(S(=O)(=O)Nc2nccs2)cc1C#N [Example 117, 3-cyano-4-((6-(3-fluorophenyl)-2-(1-methyl-1H-pyrazol-5-yl)pyridin-3-yl)oxy)-N-(thiazol-2-yl)benzenesulfonamide]	51 to 100

SMILES	IC50 [nM]
Cn1nccc1-c1nc(-c2ccccc2F)ccc1Oc1ccc(S(=O)(=O)Nc2nccs2)cc1C#N [Example 118, 3-cyano-4-((6-(2-fluorophenyl)-2-(1-methyl-1H-pyrazol-5-yl)pyridin-3-yl)oxy)-N-(thiazol-2-yl)benzenesulfonamide]	> 100
Cn1nccc1-c1nc(-c2ccsc2)ccc1Oc1ccc(S(=O)(=O)Nc2nccs2)cc1C#N [Example 119, 3-cyano-4-((2-(1-methyl-1H-pyrazol-5-yl)-6-(thiophen-3-yl)pyridin-3-yl)oxy)-N-(thiazol-2-yl)benzenesulfonamide]	51 to 100
Cn1cc(-c2ccc(Oc3ccc(S(=O)(=O)Nc4nccs4)cc3C#N)c(-c3ccnn3C)n2)cn1 [Example 120, 3-cyano-4-((6-(1-methyl-1H-pyrazol-4-yl)-2-(1-methyl-1H-pyrazol-5-yl)pyridin-3-yl)oxy)-N-(thiazol-2-yl)benzenesulfonamide]	> 100
Cn1nccc1-c1nc(-c2cnoc2)ccc1Oc1ccc(S(=O)(=O)Nc2nccs2)cc1C#N [Example 121, 3-cyano-4-((6-(isoxazol-4-yl)-2-(1-methyl-1H-pyrazol-5-yl)pyridin-3-yl)oxy)-N-(thiazol-2-yl)benzenesulfonamide]	> 100
Cn1cc(-c2nc(-c3cccc(F)c3)ccc2Oc2ccc(S(=O)(=O)Nc3nccs3)cc2C#N)cn1 [Example 122, 3-cyano-4-((6-(3-fluorophenyl)-2-(1-methyl-1H-pyrazol-4-yl)pyridin-3-yl)oxy)-N-(thiazol-2-yl)benzenesulfonamide]	51 to 100
Cn1cc(-c2nc(-c3cccnc3F)ccc2Oc2ccc(S(=O)(=O)Nc3nccs3)cc2C#N)cn1 [Example 123, 3-cyano-4-((2′-fluoro-6-(1-methyl-1H-pyrazol-4-yl)-[2,3′-bipyridin]-5-yl)oxy)-N-(thiazol-2-yl)benzenesulfonamide]	> 100
Cn1cc(-c2nc(-c3ccc(F)nc3)ccc2Oc2ccc(S(=O)(=O)Nc3nccs3)cc2C#N)cn1 [Example 124, 3-cyano-4-((6′-fluoro-6-(1-methyl-1H-pyrazol-4-yl)-[2,3′-bipyridin]-5-yl)oxy)-N-(thiazol-2-yl)benzenesulfonamide]	> 100
Cn1cc(-c2nc(-c3ccnc(F)c3)ccc2Oc2ccc(S(=O)(=O)Nc3nccs3)cc2C#N)cn1 [Example 125, 3-cyano-4-((2′-fluoro-6-(1-methyl-1H-pyrazol-4-yl)-[2,4′-bipyridin]-5-yl)oxy)-N-(thiazol-2-yl)benzenesulfonamide]	> 100
Cn1cc(-c2nc(-c3ccc(F)nc3F)ccc2Oc2ccc(S(=O)(=O)Nc3nccs3)cc2C#N)cn1 [Example 126, 3-cyano-4-((2′,6′-difluoro-6-(1-methyl-1H-pyrazol-4-yl)-[2,3′-bipyridin]-5-yl)oxy)-N-(thiazol-2-yl)benzenesulfonamide]	> 100
N#Cc1cc(S(=O)(=O)Nc2nccs2)ccc1Oc1ccc(-c2ccc(F)nc2F)nc1-c1ccoc1 [Example 127, 3-cyano-4-((2′,6′-difluoro-6-(furan-3-yl)-[2,3′-bipyridin]-5-yl)oxy)-N-(thiazol-2-yl)benzenesulfonamide]	51 to 100
Cn1nccc1-c1nc(-c2ccc(F)nc2F)ccc1Oc1ccc(S(=O)(=O)Nc2nccs2)cc1C#N [Example 128, 3-cyano-4-((2′,6′-difluoro-6-(1-methyl-1H-pyrazol-5-yl)-[2,3′-bipyridin]-5-yl)oxy)-N-(thiazol-2-yl)benzenesulfonamide]	> 100
O=S(=O)(Nc1cscn1)c1cc(Cl)c(Oc2ccc(-c3ccc(F)nc3F)nc2-c2ccoc2)cc1F [Example 129, 5-chloro-4-((2′,6′-difluoro-6-(furan-3-yl)-[2,3′-bipyridin]-5-yl)oxy)-2-fluoro-N-(thiazol-4-yl)benzenesulfonamide]	> 100
O=S(=O)(Nc1cscn1)c1cc(Cl)c(Oc2ccc(-c3ccc(F)nc3)nc2-c2ccoc2)cc1F [Example 130, 5-chloro-2-fluoro-4-((6′-fluoro-6-(furan-3-yl)-[2,3′-bipyridin]-5-yl)oxy)-N-(thiazol-4-yl)benzenesulfonamide]	> 100
O=S(=O)(Nc1cscn1)c1cc(Cl)c(Oc2ccc(-c3ccc(F)cc3)nc2-c2ccoc2)cc1F [Example 131, 5-chloro-2-fluoro-4-((6-(4-fluorophenyl)-2-(furan-3-yl)pyridin-3-yl)oxy)-N-(thiazol-4-yl)benzenesulfonamide]	51 to 100
O=S(=O)(Nc1cscn1)c1cc(Cl)c(Oc2ccc(-c3ccnc(F)c3)nc2-c2ccoc2)cc1F [Example 132, 5-chloro-2-fluoro-4-((2′-fluoro-6-(furan-3-yl)-[2,4′-bipyridin]-5-yl)oxy)-N-(thiazol-4-yl)benzenesulfonamide]	> 100
O=S(=O)(Nc1cscn1)c1cc(Cl)c(Oc2ccc(-c3ccccc3F)nc2-c2ccoc2)cc1F [Example 133, 5-chloro-2-fluoro-4-((6-(2-fluorophenyl)-2-(furan-3-yl)pyridin-3-yl)oxy)-N-(thiazol-4-yl)benzenesulfonamide]	> 100
